Reference: ChEMBL document CHEMBL1157354, “Asymmetric synthesis of inhibitors of glycinamide ribonucleotide transformylase” (J Med Chem, 2008)

What was measured:
[1] = target: Bifunctional purine biosynthesis protein ATIC (Homo sapiens, UniProt P31939); assay: Inhibition of human recombinant AICAR transformylase
CCRF-CEM [2] = assay: Cytotoxicity against human CCRF-CEM cells in absence of thymidine and hypoxanthine
CCRF-CEM [3] = assay: Cytotoxicity against human CCRF-CEM cells in presence of thymidine and absence of hypoxanthine
CCRF-CEM [4] = assay: Cytotoxicity against human CCRF-CEM cells in absence of thymidine and presence of hypoxanthine
CCRF-CEM [5] = assay: Cytotoxicity against folyl-poly-glutamate synthetase-deficient human CCRF-CEM cells in absence of thymidine and hypoxanthine
CCRF-CEM [6] = assay: Cytotoxicity against human CCRF-CEM cells expressing reduced folate carrier in absence of thymidine and hypoxanthine
[7] = target: T1, Trifunctional purine biosynthetic protein adenosine-3 (Homo sapiens, UniProt P22102); assay: Inhibition of human recombinant GAR transformylase
T1 sequence (P22102 whole entry): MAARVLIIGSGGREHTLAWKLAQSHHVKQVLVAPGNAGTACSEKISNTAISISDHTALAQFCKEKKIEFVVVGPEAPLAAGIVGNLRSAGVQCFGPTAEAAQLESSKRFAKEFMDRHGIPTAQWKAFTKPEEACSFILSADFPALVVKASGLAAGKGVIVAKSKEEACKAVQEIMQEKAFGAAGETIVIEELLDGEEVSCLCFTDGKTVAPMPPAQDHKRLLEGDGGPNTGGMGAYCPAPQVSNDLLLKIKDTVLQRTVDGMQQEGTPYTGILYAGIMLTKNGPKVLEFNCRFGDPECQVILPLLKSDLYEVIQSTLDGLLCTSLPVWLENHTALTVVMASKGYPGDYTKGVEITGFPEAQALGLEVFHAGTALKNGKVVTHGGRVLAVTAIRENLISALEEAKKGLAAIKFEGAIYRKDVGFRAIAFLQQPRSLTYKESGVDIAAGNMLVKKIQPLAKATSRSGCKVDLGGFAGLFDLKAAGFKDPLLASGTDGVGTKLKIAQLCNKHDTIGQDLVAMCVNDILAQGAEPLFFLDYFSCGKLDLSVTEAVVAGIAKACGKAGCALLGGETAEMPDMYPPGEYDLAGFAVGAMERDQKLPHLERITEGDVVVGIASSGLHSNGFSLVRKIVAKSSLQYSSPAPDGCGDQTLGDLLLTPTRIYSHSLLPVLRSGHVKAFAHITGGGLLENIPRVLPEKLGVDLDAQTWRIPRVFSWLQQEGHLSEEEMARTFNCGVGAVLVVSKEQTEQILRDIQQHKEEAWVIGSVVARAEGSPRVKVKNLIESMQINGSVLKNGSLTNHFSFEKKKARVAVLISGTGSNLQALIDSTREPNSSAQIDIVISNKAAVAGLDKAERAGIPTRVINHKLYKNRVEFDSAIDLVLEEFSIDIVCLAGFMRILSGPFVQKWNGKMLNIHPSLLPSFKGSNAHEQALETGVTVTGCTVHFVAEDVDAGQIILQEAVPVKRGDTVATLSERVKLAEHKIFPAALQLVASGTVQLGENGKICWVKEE

Bifunctional purine biosynthesis protein ATIC, sequence (P31939 whole entry): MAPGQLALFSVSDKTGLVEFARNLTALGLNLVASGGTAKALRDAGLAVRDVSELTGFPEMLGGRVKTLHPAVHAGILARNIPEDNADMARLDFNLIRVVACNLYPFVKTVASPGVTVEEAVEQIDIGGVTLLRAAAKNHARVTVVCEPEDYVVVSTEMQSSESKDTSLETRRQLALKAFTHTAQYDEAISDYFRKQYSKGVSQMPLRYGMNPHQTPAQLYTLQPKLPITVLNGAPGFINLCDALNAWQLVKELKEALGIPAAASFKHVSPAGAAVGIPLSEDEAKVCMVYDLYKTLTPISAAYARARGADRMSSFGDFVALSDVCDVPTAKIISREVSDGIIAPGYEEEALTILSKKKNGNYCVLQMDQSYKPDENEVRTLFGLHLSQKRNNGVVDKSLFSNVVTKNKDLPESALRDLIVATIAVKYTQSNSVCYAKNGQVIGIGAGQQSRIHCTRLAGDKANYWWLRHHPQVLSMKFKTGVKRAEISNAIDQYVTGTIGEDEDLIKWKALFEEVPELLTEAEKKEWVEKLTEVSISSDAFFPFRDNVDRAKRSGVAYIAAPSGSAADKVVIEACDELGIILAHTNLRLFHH

Row | Ki [7] [nM] | SMILES | Ki [1] [µM] | IC50 (CCRF-CEM [2]) [nM] | IC50 (CCRF-CEM [3]) [nM] | IC50 (CCRF-CEM [4]) [µM] | IC50 (CCRF-CEM [5]) [µM] | IC50 (CCRF-CEM [6]) [nM]
1 | – | Nc1nc(N)c(CCCC(C(=O)C(F)(F)F)c2ccc(C(=O)N[C@@H](CCC(=O)O)C(=O)O)cc2)c(=O)[nH]1 (some centres not stated) | > 100 | 16 | 17 | > 10 | > 10 | –
2 | – | CS[C@@H](CCCc1c(N)nc(N)[nH]c1=O)c1ccc(C(=O)N[C@@H](CCC(=O)O)C(=O)O)cc1 | > 100 | 50 | 70 | > 10 | 5 | 60
3 | – | CO[C@H](CCCc1c(N)nc(N)[nH]c1=O)c1ccc(C(=O)N[C@@H](CCC(=O)O)C(=O)O)cc1 | > 100 | 500 | 700 | > 10 | 6 | 600
4 | – | Nc1nc(N)c(CCCC2(c3ccc(C(=O)N[C@@H](CCC(=O)O)C(=O)O)cc3)SCCCS2)c(=O)[nH]1 | 20 | > 100000 | > 100000 | > 10 | – | –
5 | 1100 | Nc1nc(N)c(CCC[C@@H](O)c2ccc(C(=O)N[C@@H](CCC(=O)O)C(=O)O)cc2)c(=O)[nH]1 | > 100 | 2400 | 5700 | > 10 | > 10 | –
6 | – | CS[C@H](CCCc1c(N)nc(N)[nH]c1=O)c1ccc(C(=O)N[C@@H](CCC(=O)O)C(=O)O)cc1 | > 100 | 80 | 80 | > 10 | 5.5 | 70
7 | – | Nc1nc(N)c(CCC[C@H](O)c2ccc(C(=O)N[C@@H](CCC(=O)O)C(=O)O)cc2)c(=O)[nH]1 | > 100 | – | – | > 10 | > 10 | –
8 | – | CO[C@@H](CCCc1c(N)nc(N)[nH]c1=O)c1ccc(C(=O)N[C@@H](CCC(=O)O)C(=O)O)cc1 | > 100 | 700 | 900 | > 10 | > 10 | 900
9 | – | Nc1nc(N)c(CCCCc2ccc(C(=O)N[C@@H](CCC(=O)O)C(=O)O)cc2)c(=O)[nH]1 [DIDEAZAACYCLOTETRAHYDROFOLIC ACID] | 20 | 2700 | 3600 | > 10 | > 10 | > 100000
10 | – | Nc1nc2c(c(=O)[nH]1)C[C@@H](CCc1ccc(C(=O)N[C@@H](CCC(=O)O)C(=O)O)cc1)CN2 [LOMETREXOL] | > 100 | – | – | > 10 | > 10 | > 100000
